Laboratory results as given in patent US20060148730A1, “Method of treating tuberculosis” (priority 2003, published 2006).
Converted amounts (≈) assume the structure as drawn. “Also recorded” adds a separate entry of the source.

Tests used:
M. tuberculosis H37Rv = test: MIC vs. M. tuberculosis H37Rv, microplate Alamar Blue assay (MABA); type: cell-based
M. tuberculosis = conditions: literature (Luna-Herrera 1995; Truffot-Pernot 1995); cited from earlier work
VERO cells [1] = test system: VERO cells
VERO cells [2] = test: Cytotoxicity against VERO cells (MTS, 72 hours)

Compound | enhancement in potency of macrolide over counterpart ketolide (M. tuberculosis H37Rv; MIC ratio ketolide/macrolide) | MIC (M. tuberculosis H37Rv; Table 2a, 11,12-diols, anti-TB activity, read-out: MIC) | activity in mouse models (M. tuberculosis) | anti-TB activity / MIC in words (M. tuberculosis H37Rv; result in words) | in vitro toxicity / cytotoxicity in words (VERO cells [1]) | selectivity index (SI), VERO cells (VERO cells [2])
CC[C@H]1OC(=O)[C@H](C)[C@@H](O[C@H]2C[C@@](C)(OC)[C@@H](O)[C@H](C)O2)[C@H](C)[C@@H](O[C@@H]2O[C@H](C)C[C@H](N(C)C)[C@H]2O)[C@](C)(OC)C[C@@H](C)C(=O)[C@H](C)[C@@H](O)[C@]1(C)O [Clarithromycin, reference compound] | 16 fold | 8 µM (≈ 5.98 µg/mL) | marginal and nil |  |  | 
CCCCCCCCCCN1CCCC(O/N=C2\[C@H](C)C[C@@](C)(OC)[C@H](O[C@@H]3O[C@H](C)C[C@H](N(C)C)[C@H]3O)[C@@H](C)C(=O)[C@@H](C)C(=O)O[C@H](CC)[C@@](C)(O)[C@H](O)[C@H]2C)C1 (stereo partly drawn) [RU60887] |  |  |  | most potent of the tested 9-oxime compounds; also recorded: very low | comparable to clarithromycin | 221
